Experimental findings from ChEMBL document CHEMBL5053515, “Insights into Ergochromes of the Plant Pathogen Claviceps purpurea” (J Nat Prod, 2021) are described below.

pIC50: −log10 of the molar value. The source made the active and inactive calls. The rule behind the calls is not given here.

For experiment [1], the system named is HepG2. The experiment in a line: Cytotoxicity against human HepG2 cells assessed as reduction in cell viability at up to 100 uM measured at 48 hrs by resazurin reagent based assay. It is filed as functional. For orientation: Resazurin is reduced to fluorescent resorufin, in cell work by metabolically active cells.
The test system of the next experiment is CCF-STTG1. The experiment can be described thus: Cytotoxicity against human CCF-STTG1 cells assessed as reduction in cell viability measured at 48 hrs by resazurin reagent based assay. The class given is functional. To be noted: CCF-STTG1, 48 h.
For experiment [2], the system named is HepG2. The experiment in a line: Cytotoxicity against human HepG2 cells assessed as reduction in cell viability measured at 48 hrs by resazurin reagent based assay. As to conditions: HepG2, 48 h. The class given is functional.
The target of experiment [3] is T1, DNA topoisomerase 1 (Homo sapiens) (UniProt P11387).
T1 sequence (whole entry): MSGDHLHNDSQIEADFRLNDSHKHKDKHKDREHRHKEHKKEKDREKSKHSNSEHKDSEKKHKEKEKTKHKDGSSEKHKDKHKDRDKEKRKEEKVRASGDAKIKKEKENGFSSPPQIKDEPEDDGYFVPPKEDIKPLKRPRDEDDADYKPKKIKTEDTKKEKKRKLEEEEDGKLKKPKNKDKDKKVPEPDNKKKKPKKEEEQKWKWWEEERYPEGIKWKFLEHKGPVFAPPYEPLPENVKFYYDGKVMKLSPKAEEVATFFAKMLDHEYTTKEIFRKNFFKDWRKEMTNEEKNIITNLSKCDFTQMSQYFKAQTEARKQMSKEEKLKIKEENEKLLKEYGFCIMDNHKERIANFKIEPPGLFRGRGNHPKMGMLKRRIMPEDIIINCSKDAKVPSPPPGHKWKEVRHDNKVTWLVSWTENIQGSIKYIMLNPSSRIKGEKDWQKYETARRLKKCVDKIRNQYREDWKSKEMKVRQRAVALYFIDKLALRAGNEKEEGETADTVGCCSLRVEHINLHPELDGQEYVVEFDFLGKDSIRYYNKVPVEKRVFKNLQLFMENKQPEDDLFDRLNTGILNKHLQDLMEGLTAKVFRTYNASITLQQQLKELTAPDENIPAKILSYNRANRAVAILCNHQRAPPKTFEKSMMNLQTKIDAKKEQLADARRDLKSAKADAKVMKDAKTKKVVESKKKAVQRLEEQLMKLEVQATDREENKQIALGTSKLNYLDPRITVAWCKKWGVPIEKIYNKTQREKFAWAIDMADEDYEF
The experiment can be described thus: Inhibition of topoisomerase 1 (unknown origin) assessed as relaxation of supercoiled plasmid pUC18 measured after 30 mins by ethidium bromide staining based agarose gel electrophoresis.

Experiment [4] deals with T1, DNA topoisomerase 1 (Homo sapiens). The experiment in a line: Inhibition of topoisomerase 1 (unknown origin) assessed as relaxation of supercoiled plasmid pUC18 DNA at 100 uM measured after 30 mins by ethidium bromide staining based agarose gel electrophoresis relative to control.
Experiment [5] concerns the target DNA topoisomerase 2-alpha (Homo sapiens) (UniProt P11388). The experiment in a line: Inhibition of human topoisomerase 2a assessed as reduction in decatenation of kinetoplast DNA at 25 uM using kinetoplast DNA as substrate incubated for 2 hrs by ethidium bromide staining based agarose gel electrophoresis method relative to control.
The test system of experiment [6] is HepG2. The experiment in a line: Cytotoxicity against human HepG2 cells assessed as reduction in cell viability at 100 uM measured at 48 hrs by resazurin reagent based assay relative to control. It is filed as functional.

Sequence of DNA topoisomerase 2-alpha (Homo sapiens) (P11388 whole entry): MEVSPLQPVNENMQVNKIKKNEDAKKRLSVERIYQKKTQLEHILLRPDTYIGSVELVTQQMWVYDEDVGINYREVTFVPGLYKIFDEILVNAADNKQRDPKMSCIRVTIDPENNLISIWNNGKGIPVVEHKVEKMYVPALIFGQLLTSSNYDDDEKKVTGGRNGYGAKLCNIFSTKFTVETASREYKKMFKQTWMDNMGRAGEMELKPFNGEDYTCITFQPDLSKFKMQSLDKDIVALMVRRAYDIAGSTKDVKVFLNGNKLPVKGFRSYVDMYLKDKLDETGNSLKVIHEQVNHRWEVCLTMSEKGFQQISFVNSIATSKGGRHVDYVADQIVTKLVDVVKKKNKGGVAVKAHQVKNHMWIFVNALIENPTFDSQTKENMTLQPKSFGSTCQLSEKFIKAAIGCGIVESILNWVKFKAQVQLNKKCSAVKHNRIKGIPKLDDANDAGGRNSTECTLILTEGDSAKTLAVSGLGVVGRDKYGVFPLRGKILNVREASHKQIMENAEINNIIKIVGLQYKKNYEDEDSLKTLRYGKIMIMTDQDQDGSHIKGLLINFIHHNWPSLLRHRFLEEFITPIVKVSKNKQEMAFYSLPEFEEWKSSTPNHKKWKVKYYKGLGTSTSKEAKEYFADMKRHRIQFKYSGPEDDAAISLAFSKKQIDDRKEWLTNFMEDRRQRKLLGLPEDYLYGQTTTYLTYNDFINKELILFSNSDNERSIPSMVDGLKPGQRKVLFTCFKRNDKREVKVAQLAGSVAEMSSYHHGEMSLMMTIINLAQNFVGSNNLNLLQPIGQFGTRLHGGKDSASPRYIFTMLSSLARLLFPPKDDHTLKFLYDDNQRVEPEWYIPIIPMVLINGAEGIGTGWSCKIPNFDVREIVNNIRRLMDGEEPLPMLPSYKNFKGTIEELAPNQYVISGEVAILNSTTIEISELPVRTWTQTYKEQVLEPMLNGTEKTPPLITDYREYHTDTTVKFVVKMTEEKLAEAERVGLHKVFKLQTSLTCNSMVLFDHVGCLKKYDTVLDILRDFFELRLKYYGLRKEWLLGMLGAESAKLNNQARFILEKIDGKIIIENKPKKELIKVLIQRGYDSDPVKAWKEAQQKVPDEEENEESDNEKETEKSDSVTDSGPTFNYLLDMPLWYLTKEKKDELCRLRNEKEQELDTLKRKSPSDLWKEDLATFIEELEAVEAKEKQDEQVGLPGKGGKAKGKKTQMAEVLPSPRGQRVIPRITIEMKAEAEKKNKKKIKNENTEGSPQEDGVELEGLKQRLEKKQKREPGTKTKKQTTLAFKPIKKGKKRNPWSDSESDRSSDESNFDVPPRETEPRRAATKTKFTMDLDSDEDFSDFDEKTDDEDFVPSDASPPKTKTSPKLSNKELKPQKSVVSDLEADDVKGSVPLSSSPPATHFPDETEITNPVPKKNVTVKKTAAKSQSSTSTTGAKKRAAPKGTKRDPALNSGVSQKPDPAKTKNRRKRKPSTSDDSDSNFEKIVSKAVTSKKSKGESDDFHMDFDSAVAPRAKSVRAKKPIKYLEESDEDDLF

Take `Cc1cc2c(c(O)c1C(=O)O)C(=O)c1c(O)cc(O)c(O)c1C2=O`: the outcome in the experiment with HepG2 [1] was inactive.
By pIC50 is commonly meant the IC50 on a negative log10 scale, so that one unit is a factor of ten. Take `COC(=O)[C@]12Oc3ccc(-c4ccc5c(c4O)C(=O)C4(O)C(=O)C[C@@H](C)[C@H](O)[C@@]4(C(=O)OC)O5)c(O)c3C(=O)C1(O)C(=O)C[C@@H](C)[C@@H]2O` (stereo partly specified): the results for the pIC50 in the experiment with CCF-STTG1 and in the experiment with HepG2 [2] were 4.87 and 4.27, respectively.
As usually defined, the inhibition is how much of the control response was suppressed. Turning to `COC(=O)[C@]12Oc3ccc(-c4ccc5c(c4O)C(=O)C4=C(O)C[C@@H](C)[C@H](O)[C@@]4(C(=O)OC)O5)c(O)c3C(=O)C1=C(O)C[C@@H](C)[C@@H]2O` [SECALONIC ACID A], the inhibition result in experiment [3] was “Dose-dependent effect”; in experiment [4] it was 100%; in experiment [5], 100%. The results for the negative-log IC50 (pIC50) in the experiment on CCF-STTG1 and with HepG2 [2] were 6.00 and 6.05, respectively.
Consider `COC(=O)[C@]12Oc3ccc(-c4ccc(O)c5c4O[C@@]4(C(=O)OC)C(=C(O)C[C@@H](C)[C@@H]4O)C5=O)c(O)c3C(=O)C1=C(O)C[C@@H](C)[C@@H]2O`, for which the pIC50 with CCF-STTG1 is 6.00; in the experiment with HepG2 [2], 6.05.
On to `Cc1cc2c(c(O)c1C(=O)O)C(=O)c1c(O)cc(O)cc1C2=O`, for which the result in the experiment with HepG2 [1] was inactive.
`COC(=O)[C@]12Oc3c(-c4ccc(O)c5c4O[C@@]4(C(=O)OC)C(=C(O)C[C@@H](C)[C@@H]4O)C5=O)ccc(O)c3C(=O)C1=C(O)C[C@@H](C)[C@@H]2O`: the pIC50 is 6.00 in the experiment with CCF-STTG1 and 6.05 in the experiment on HepG2 [2].
For `C[C@@H]1C[C@@]2(O)OC(=O)[C@@]3(Oc4ccc(-c5ccc6c(c5O)C(=O)C5(O)[C@@]7(O)C[C@@H](C)[C@H](O)[C@]5(O6)C(=O)O7)c(O)c4C(=O)C23O)[C@H]1O` (stereo partly specified), the inhibition entry in experiment [3] and in experiment [5] was “inactive” in each case. The pIC50 in the experiment with CCF-STTG1 was 5.64; in the experiment on HepG2 [2] it was 4.22. Further, the Activity with HepG2 [6] is reported as 3%.
On to `COC(=O)[C@@]1(C(O)C(C)CC(=O)O)CC(=O)c2c(ccc(-c3ccc4c(c3O)C(=O)C3(O)C(O)C[C@@H](C)[C@H](O)[C@@]3(C(=O)O)O4)c2O)O1` (stereo partly specified), for which the inhibition entry in experiment [3] and in experiment [5] was “inactive” each time. Moreover, in the experiment with CCF-STTG1, the negative-log IC50 (pIC50) is 5.12.
